One block for each compound: values may come before it.
How the values were obtained:
[1] = biological target: T1, adenosine A2a receptor (Human) (Homo sapiens, UniProt P29274); assay: c-AMP generating action in cell expressing adenosine A2a receptor; format: cell-based; conditions: HEK293 cell expressing human A2a; 100% = c-AMP caused by 1 μM CGS-21680; read-out: A2a Agonistic Action (EC50)
T1 construct: host or cells: HEK293
Procedure: (1) c-AMP Generating Action in Cell Expressing Adenosine A2a Receptor
The test was carried out as mentioned below with reference to the method disclosed in the reference (Klotz k. N. et al., Naunyn-Schmiedeberg's Arch. Pharmacol., (1998) 357, 1-9; Shryock J. C. et al., Molecular Pharmacology, (1998) 53, 886-893).
As to the cell, HEK293 cell expressing adenosine A2a receptor (Human) (PerkinElmer Life Sciences, Code No. RBHA2AC) was used.
As to the culture medium, Dulbecco's modified Eagles medium (DMEM) including 10% FBS (Fetal bovine serum) and 1 mM of sodium pyruvate was used.
The cell was placed on 96 well plate (1×10^5/well), and cultured overnight. After removing off the supernatant, to each well, 0.1 ml of DMEM (without FBS) containing 20 mM HEPES, 0.1 mM of IBMX (3-isobutyl-1-methylxanthine) and 2 unit/mL adenosine deaminase was added, and they were incubated at 37° C. for 30 minutes. To each well, 0.1 ml of the culture medium including the DMSO solution of the test compound in an appropriate concentration was added and they were incubated for additional 30 minutes. After removing off the supernatant, the cytolytic solution was added to quench the reaction. The amount of c-AMP in each well was measured by using the c-AMP enzyme immunoassay (EIA) system (Amersham Biosciences, Code No. RPN225).
The same assay was repeated using CGS-21680 (2-p-carboxyethyl)phenethylamino-5′-N-ethylcarboxamidoadenosine hydrochloride, (Sigma, code C141) as reference compound. The amount of resultant c-AMP in the medium, caused by 1 μM of reference compound, was defined to be 100%. A concentration of assayed compound in the medium, producing 50% c-AMP amounts, was calculated to be EC50 value.

[2] = biological target: T2, A1 receptor (Rattus norvegicus, UniProt P25099); assay: Adenosine A1 agonistic action ([35S]GTPγS binding, rat cerebral cortex cell membrane); format: biochemical, male Wistar rats; conditions: percentage to 100% of CPA 1 μM
T2 construct: cerebral cortex of male Wistar rats (Charles River Japan, Inc) was extirpated; from tissue; host or cells: cerebral cortex of male Wistar rats, cell membrane preparation
T2 sequence (P25099 1-326): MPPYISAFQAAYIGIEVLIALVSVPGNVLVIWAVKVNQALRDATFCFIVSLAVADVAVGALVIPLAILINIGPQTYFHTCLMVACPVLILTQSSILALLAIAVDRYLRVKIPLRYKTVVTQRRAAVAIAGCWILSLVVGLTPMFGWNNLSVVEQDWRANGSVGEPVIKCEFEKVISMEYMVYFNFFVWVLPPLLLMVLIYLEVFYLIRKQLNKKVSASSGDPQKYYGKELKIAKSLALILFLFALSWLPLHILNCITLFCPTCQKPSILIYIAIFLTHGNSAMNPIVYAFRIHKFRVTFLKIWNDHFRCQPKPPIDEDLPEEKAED
Procedure: (2) Adenosine A1 Agonistic Action
The test was carried out as mentioned below with reference to the method disclosed in the literature (Shryock J. C. et al., Molecular Pharmacology, (1998) 53, 886-893; Ito H. et al., European Journal of Pharmacology, (1999) 365, 309-315). That is, cerebral cortex of male Wistar rats (Charles River Japan, Inc) was extirpated, thereto Tris buffer (50 mM Tris-HCl: pH 7.4) was added, it was homogenized, and then centrifuged (1000×g, 10 min). The supernatant was taken, and centrifuged (20,000×g, 20 min). After removing off the supernatant, the precipitate was suspended in Tris buffer, and recentrifuged (20,000×g, 20 min). After removing off the supernatant, the precipitate was suspended in Tris buffer including 2 units/mL ADA (adenosine deaminase) and reserved at −80° C. until used as a liquid preparation of cell membrane for the following tests.
The above liquid preparation of cell membrane in an amount corresponding to 10 μg of cell membrane was added to Tris-buffer comprising 5 mM of MgCl2, 1 mM of EDTA, 1 mM of dithiothreitol, 100 mM of NaCl, 0.01 mM of GDP (guanosine diphosphate), 5 mg/mL of BSA and 2 units/mL of ADA and the mixture was incubated at 25° C. for 30 minutes. Additionally, [^35S]GTPγS (Guanosine 5′-[γ-thio]triphosphate) (the final concentration: 0.4 nM) and the test compound of the given concentration (which was calculated based on the final concentration of the test compound) were added to the mixture and the resulting mixture was incubated at 25° C. for 45 minutes. The reaction mixture was filtrated through a glass fiber filter (unifilter-96 GF/B, Perkin Elmer Life Sciences) to quench reaction. The filter was washed 5 times with ice-cooled Tris-buffer including 5 mM MgCl2. The radioactivity of the filter was measured with Top count NXT(Perkin Elmer Life Sciences). The nonspecific binding was shown as the binding activity of [^35S]GTPγS in the presence of 0.01 mM GTPγS.
The activity (%, A1 agonistic action) of each test compound was calculated on the basis of the test result ([^35S]GTPγS binding activity) derived with 1 μM of CPA (N^6-Cyclopentyladenosine, Sigma, code C-8031) in control which was counted as 100%.

[3] = tested on: Intraocular Pressure in Rabbit; assay: Measuring test for intraocular pressure in rabbit; format: in vivo, Female New Zealand white rabbits; conditions: mean±standard error
Procedure: (3) Measuring Test for Intraocular Pressure in Rabbit
The test compounds were dissolved in 10 mM of phosphate buffer (pH 7.5) (hereinafter, referred to as “vehicle of ophthalmic preparation”), and they were instilled in a given concentration. In addition, the compounds insoluble in that concentration was used as a suspension. Female New Zealand white rabbits (KITAYAMA LABES Co., Ltd.) whose weights were 2.0-4.0 kg were used.
The measurement of the intraocular pressure was carried out using Pneumatonometer (Model 30 Classic, Mentor company) without anesthesia. In addition, before the measurement of the intraocular pressure, the surface anesthesia with 0.4% oxybuprocaine hydrochloride (“Benoxil” 0.4% ophthalmic solution, Santen Pharmaceutical Co., Ltd.) was carried out.
The animals whose intraocular pressure was stable before instillation were selected, and these animals were divided to every 4 animal in each one group, 50 μL of eye drops including each the test compound was administered to one-sided eye and vehicle was administered to contralateral eye as the control eye. The measurement of intraocular pressure was carried out before instillation and after 0.5, 1, 2, 3, 4 and 6 hours from instillation. The effect on the intraocular pressure was shown as the difference from pre-instillation (ΔIOP, mmHg, mean±standard error). The following Tables 14 and 15 show the results of Control Compounds A and B used as 1% suspensions which are the same as in the pharmacological test (1).
The animals were pretreated as mentioned above, and among them animals whose intraocular pressure was stable before instillation were selected, and these animals were divided to every 5 to 8 animal in each one group. Every two group was used for each of the test compounds. The test compound was administered unilaterally to the eye of the test group rabbit and the intraocular pressure was measured. The vehicle was administered unilaterally to the eye of the control group rabbit and the intraocular pressure was measured. As mentioned above, the measurement of intraocular pressure was carried out before instillation and after 0.5, 1, 2, 3, 4 and 6 hours from instillation, and the effect on the intraocular pressure was shown as the difference from pre-instillation (ΔIOP, mmHg, mean±standard error).

[4] = 0.03% ophthalmic solution, rabbit, instillation, 0.5 hr after instillation, difference from pre-instillation
[5] = 0.03% ophthalmic solution, rabbit, instillation, 1 hr after instillation, difference from pre-instillation
[6] = 0.03% ophthalmic solution, rabbit, instillation, 2 hr after instillation, difference from pre-instillation
[7] = 0.03% ophthalmic solution, rabbit, instillation, 3 hr after instillation, difference from pre-instillation
[8] = 0.03% ophthalmic solution, rabbit, instillation, 4 hr after instillation, difference from pre-instillation
[9] = 0.03% ophthalmic solution, rabbit, instillation, 6 hr after instillation, difference from pre-instillation

T1 sequence (P29274 whole entry): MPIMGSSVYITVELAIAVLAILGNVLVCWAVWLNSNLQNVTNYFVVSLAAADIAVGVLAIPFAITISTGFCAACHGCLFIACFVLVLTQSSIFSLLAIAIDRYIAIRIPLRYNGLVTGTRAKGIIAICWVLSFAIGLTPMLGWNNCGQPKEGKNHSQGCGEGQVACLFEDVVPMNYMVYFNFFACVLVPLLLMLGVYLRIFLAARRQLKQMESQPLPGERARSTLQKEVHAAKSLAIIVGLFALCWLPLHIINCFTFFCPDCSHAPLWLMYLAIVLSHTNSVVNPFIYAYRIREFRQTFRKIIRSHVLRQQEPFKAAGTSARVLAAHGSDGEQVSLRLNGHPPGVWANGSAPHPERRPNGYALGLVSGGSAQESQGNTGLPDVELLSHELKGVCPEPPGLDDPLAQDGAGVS

SMILES: CCN(CC)CCN1CCN(C(=O)CCc2cccc(CSc3nc(N)c(C#N)c(-c4ccc(NC(C)=O)cc4)n3)n2)CC1.Cl [Example 79, N-{4-[6-amino-5-cyano-2-(6-{3-[4-(2-diethylaminoethyl)piperazin-1-yl]-3-oxopropyl}pyridin-2-ylmethylsulfanyl)pyrimidin-4-yl]phenyl}acetamide hydrochloride]
EC50 [1]: 8.4 nM | A1 Agonistic Action (%) ([2]; test compound 10 nM, hydrochloride): 0% | A1 Agonistic Action (%) ([2]; test compound 100 nM, hydrochloride): 12% | A1 Agonistic Action (%) ([2]; test compound 1 μM, hydrochloride): 45% | ΔIOP (mmHg) [3, 4]: 0.3 ± 0.9 mmHg | ΔIOP (mmHg) [3, 5]: −3.9 ± 0.5 mmHg | ΔIOP (mmHg) [3, 6]: −5.4 ± 0.7 mmHg | ΔIOP (mmHg) [3, 7]: −5.8 ± 0.8 mmHg | ΔIOP (mmHg) [3, 8]: −4.8 ± 0.7 mmHg | ΔIOP (mmHg) [3, 9]: −2.8 ± 1.0 mmHg

SMILES: CCN(CC)CCN1CCN(C(=O)CCc2cccc(CSc3nc(N)c(C#N)c(-c4ccc(NC(C)=O)cc4)n3)n2)CC1.Cl [Example 75, N-{4-[6-amino-5-cyano-2-(6-{3-[4-(2-diethylaminoethyl)piperazin-1-yl]-3-oxopropyl}pyridin-2-ylmethylsulfanyl)pyrimidin-4-yl]phenyl}acetamide hydrochloride]
EC50 [1]: 3 nM | A1 Agonistic Action (%) ([2]; test compound 10 nM): 3% | A1 Agonistic Action (%) ([2]; test compound 100 nM): 22% | A1 Agonistic Action (%) ([2]; test compound 1 μM): 50% | ΔIOP (mmHg) ([3]; 0.01% ophthalmic solution, test group, 0.5 hr): −0.8 ± 0.4 mmHg | ΔIOP (mmHg) ([3]; 0.01% ophthalmic solution, test group, 1 hr): −5.1 ± 0.5 mmHg | ΔIOP (mmHg) ([3]; 0.01% ophthalmic solution, test group, 2 hr): −5.3 ± 0.9 mmHg | ΔIOP (mmHg) ([3]; 0.01% ophthalmic solution, test group, 3 hr): −4.0 ± 0.9 mmHg | ΔIOP (mmHg) ([3]; 0.01% ophthalmic solution, test group, 4 hr): −4.3 ± 0.9 mmHg | ΔIOP (mmHg) ([3]; 0.01% ophthalmic solution, test group, 6 hr): −1.3 ± 0.4 mmHg

SMILES: CC(=O)Nc1ccc(-c2nc(SCc3cccc(CCC(=O)N(C)CC(C)N(C)C)n3)nc(N)c2C#N)cc1.Cl (stereo not shown) [Example 64, 3-{6-[4-(4-acetylaminophenyl)-6-amino-5-cyanopyrimidin-2-ylsulfanylmethyl]pyridin-2-yl}-N-(2-dimethylaminopropyl)-N-methylpropionamide hydrochloride]
EC50 [1]: 4.3 nM | ΔIOP (mmHg) [3, 4]: −2.7 ± 0.7 mmHg | ΔIOP (mmHg) [3, 5]: −4.9 ± 0.5 mmHg | ΔIOP (mmHg) [3, 6]: −3.8 ± 0.8 mmHg | ΔIOP (mmHg) [3, 7]: −3.2 ± 0.9 mmHg | ΔIOP (mmHg) [3, 8]: −4.0 ± 0.7 mmHg | ΔIOP (mmHg) [3, 9]: −1.8 ± 0.4 mmHg

SMILES: N#Cc1c(N)nc(SCc2csc(-c3ccc(Cl)cc3)n2)c(C#N)c1-c1ccc(OCCO)cc1 [Comparative Compound A, reference compound]
EC50 [1]: > 1000 nM | A1 Agonistic Action (%) ([2]; test compound 10 nM): 14% | A1 Agonistic Action (%) ([2]; test compound 100 nM): 55% | A1 Agonistic Action (%) ([2]; test compound 1 μM): 79%

Continued, in another order:

EC50 [1]: 14.3 nM | A1 Agonistic Action (%) ([2]; test compound 10 nM): 20% | A1 Agonistic Action (%) ([2]; test compound 100 nM): 63% | A1 Agonistic Action (%) ([2]; test compound 1 μM): 77%
SMILES: CC(=O)Nc1ccc(-c2c(C#N)c(N)nc(SCc3ccccn3)c2C#N)cc1 [Comparative Compound B, reference compound]

EC50 [1]: 11.9 nM
SMILES: CC(=O)Nc1ccc(-c2nc(SCc3cccc(C)n3)nc(N)c2C#N)cc1 [Example 2, N-{4-[6-amino-5-cyano-2-(6-methylpyridin-2-ylmethylsulfanyl)pyrimidin-4-yl]phenyl}acetamide]
ΔIOP (mmHg) ([3]; 1% suspended ophthalmic preparation, test group, 0.5 hr): 1.1 ± 0.6 mmHg | ΔIOP (mmHg) ([3]; 1% suspended ophthalmic preparation, test group, 1 hr): −3.1 ± 0.6 mmHg | ΔIOP (mmHg) ([3]; 1% suspended ophthalmic preparation, test group, 2 hr): −4.2 ± 0.7 mmHg | ΔIOP (mmHg) ([3]; 1% suspended ophthalmic preparation, test group, 3 hr): −4.0 ± 0.9 mmHg | ΔIOP (mmHg) ([3]; 1% suspended ophthalmic preparation, test group, 4 hr): −2.0 ± 0.4 mmHg | ΔIOP (mmHg) ([3]; 1% suspended ophthalmic preparation, test group, 6 hr): 0.4 ± 0.9 mmHg

EC50 [1]: 39.6 nM
SMILES: CC(=O)Nc1ccc(-c2nc(SCc3cccc(CN4CCOCC4)n3)nc(N)c2C#N)cc1 [Example 14, N-{4-[6-amino-5-cyano-2-(6-morpholin-4-ylmethylpyridin-2-ylmethylsulfanyl)pyrimidin-4-yl]phenyl}acetamide]
ΔIOP (mmHg) ([3]; 0.3% suspended ophthalmic preparation, test group, 0.5 hr): −0.3 ± 1.2 mmHg | ΔIOP (mmHg) ([3]; 0.3% suspended ophthalmic preparation, test group, 1 hr): −3.9 ± 1.3 mmHg | ΔIOP (mmHg) ([3]; 0.3% suspended ophthalmic preparation, test group, 2 hr): −4.4 ± 1.0 mmHg | ΔIOP (mmHg) ([3]; 0.3% suspended ophthalmic preparation, test group, 3 hr): −4.8 ± 1.4 mmHg | ΔIOP (mmHg) ([3]; 0.3% suspended ophthalmic preparation, test group, 4 hr): −4.3 ± 1.0 mmHg | ΔIOP (mmHg) ([3]; 0.3% suspended ophthalmic preparation, test group, 6 hr): −1.0 ± 1.0 mmHg

From US7989446B2, “4-amino 5-cyanopyrimidine derivatives” (Otsuka Pharmaceutical Co., Ltd., priority 2004, dated 2011)
